Data published in patent publication EP4782437A1, “HETEROARYL COMPOUND, AND PREPARATION METHOD THEREFOR AND USE THEREOF IN MEDICINE” (Jiangsu Hengrui Pharmaceuticals Co., Ltd., priority 2023, dated 2025).
Like-named read-outs stand apart in the source and are kept apart here.

Assays:
[1] = test system: B cell activation in human whole blood; assay: Inhibition of B cell activation in human whole blood (CD69 expression, flow cytometry); type: cell-based; details: anti-human IgD 30 µg/ml + IL-4 5 ng/ml, 18 hours, CD69-positive CD19-positive B cells, read-out: IC50 values of inhibitory activity against B cell activation in human whole blood
From the text: Test example 2: Inhibitory activity of compounds of the present disclosure against B cell activation in human whole blood • I. Experimental materials and instruments • 1. Human whole blood (internal recruitment) • 2. Goat F(ab')2 anti-human IgD-UNLB (SouthernBiotech, 2032-01) • 3. DPBS (1x) (Gibco, 14190-144) • 4. Recombinant human IL-4 (Peprotech, 200-04) • 5. Brilliant Violet 421™ anti-human CD19 antibody (Biolegend, 302234) • 6. APC anti-human CD69 antibody (Biolegend, 310910) • 7. APC mouse IgG1, κ isotype control antibody (Biolegend, 400120) • 8. eBioscience™ 10X RBC lysis buffer (multi-species) (Thermo, 004300-54) • 9. NEST 96-well deep-well plate (Wuxi NEST Biotechnology Co., Ltd., 503501) • 10. 96-well round-bottom plate (Corning, 3788) • 11. 96-well flat-bottom plate (Corning, 3599) • 12. Attune™ NxT acoustic focusing cytometer (ThermoFisher Scientific, 4.2.0) • 13. Cell incubator (Thermo, Forma steri-cycle i160) • II. Experimental procedure
B cells express the B cell receptor (BCR) complex on their surface. When B cells in human whole blood are induced to activate, they can trigger the downstream signalling pathways of the receptor and express the activation marker CD69. The expression of CD69 in activated B cells was detected by flow cytometry, and the IC50 of the compounds were calculated to evaluate the effects of the compounds on BCR activation.
The test compounds dissolved in 100% DMSO at 20 mM were diluted with 100% DMSO to a concentration of 1 mM, which represents the 200× concentration of the highest compound concentration point in the reaction system. The compounds at this concentration were then subjected to 8-point 4-fold serial dilution with 100% DMSO. The positive control wells were set with 100% DMSO, whereas the negative control wells were set with Remiburtinib at a final concentration of 5 µM. The serially diluted compounds and 100% DMSO were further diluted 10-fold in PBS to achieve the 20× concentration, followed by thorough mixing.
After thorough mixing, the whole blood sample was transferred to a loading reservoir and then dispensed into a 96-well flat-bottom plate at 80 µl per well. The compound dilution was dispensed at 5 µl per well. The 11th column of each row was designated as the negative control well, with 5 µl of 100 µM positive control drug added to each well. After thorough mixing for 5 min, the plate was incubated in a 37°C incubator for 30 min. Human IgD antibody was diluted 1.67-fold with PBS to a concentration of 300 µg/mL, and 10 µl of the diluted solution was added to each well of the culture plate (final concentration: 30 µg/ml). Human IL-4 (stock solution at 50 µg/ml) was diluted 500-fold with PBS to a concentration of 100 ng/mL, and 5 µl of the diluted solution was added to each well of the culture plate (final concentration: 5 ng/ml). After thorough mixing for 5 min, the plate was cultured in a 37°C incubator with 5% CO2 for 18 hours.
Flow cytometry detection: CD69-APC, CD19-BV421 and CD4-APC antibodies, and the isotype control antibodies for CD69-APC were removed from 4°C storage. Each antibody was added at 1 µl per well. After thorough mixing for 5 min, the plate was incubated for 30 min at 4°C (refrigerator) in the dark for staining. The 10X RBC lysis buffer was diluted in water to prepare 1X RBC lysis buffer. Aliquots of 1 ml of the lysis buffer were dispensed into each well of a 96-well deep-well plate in advance. The stained samples were transferred into the deep-well plate containing the lysis buffer for erythrocyte lysis. After completing the transfer of an entire plate, the plate was incubated in the dark for 15-20 min. Upon completion of lysis, the plate was centrifuged at 2000 rpm for 4 min. Each well was washed with 1 ml of PBS. Subsequently, the cells were resuspended in 200 µl of PBS, transferred to a 96-well plate, and washed twice more using the same procedure. The samples were resuspended in 200 µl of PBS per well and then subjected to flow cytometry detection. […]

[2] = biological target: T1, BTK recombinant human protein (Homo sapiens, UniProt Q06187); assay: Inhibitory activity against BTK (HTRF KinEASE-TK kit); type: biochemical
T1 construct: purchased Thermo PV3363
Protocol: Test example 1: Inhibitory activity of compounds of the present disclosure against BTK • I. Experimental materials and instruments • 1. BTK recombinant human protein (Thermo, PV3363) • 2. HTRF KinEASE-TK kit (Cisbio, 62TK0PEC) • 3. 1 M MgCl2 (Thermo, AM9530G) • 4. 1 M MnCl2 (Sigma, M1787-100ML) • 5. Adenosine 5'-triphosphate (ATP) (New England Biolabs, P0756L) • 6. DTT 2M (Sangon Biotech, B645939) • 7. Ultrapure water (Invitrogen, 10977-015) • 8. OptiPlate-384, white opaque 384-well microplate (PerkinElmer, 6007290) • 9. 96-well round-bottom plate (Corning, 3788) • 10. Biochemical incubator (Shanghai Boxun Medical & Biological Instruments Co., Ltd., BSP-100) • 11. 15-mL centrifuge tube (Corning) • 12. Benchtop high-speed centrifuge (Changsha Yingtai Instrument Co., Ltd., TD4N) • 13. Multifunctional microplate reader (PerkinElmer, EnVision) • 14. Bravo liquid handling platform (Agilent Technologies, SGC120TH34702) • II. Experimental procedure
The HTRF KinEASE-TK kit is designed to detect changes in BTK enzyme activity based on two technologies, i.e., fluorescence resonance energy transfer and time-resolved fluorescence. The kit is operated in two stages: 1) enzyme reaction stage: the enzyme reaction is initiated by adding ATP, where the enzyme phosphorylates the substrate, and the compounds are then added to competitively bind to BTK against ATP, thereby inhibiting substrate phosphorylation; and 2) detection stage: after the enzyme reaction is complete, a detection reagent is added to terminate the reaction. Different groups on the phosphorylated substrate bind to the energy donor and energy acceptor, respectively, bringing the two into close proximity. During the instrumental readout, the energy donor is excited by an external light source, which enables resonance energy transfer to the proximal energy acceptor. The acceptor, in turn, becomes excited and emits light at a specific wavelength. Thus, changes in enzyme activity can be detected by measuring the signal values, and the inhibition rate of the compounds against the target enzyme can be calculated, thereby evaluating the inhibitory effect of the compounds on BTK enzyme activity.
Preparation of enzyme reaction buffer: 5× Kinase Buffer was diluted 5-fold with ultrapure water, and then the stock solutions of MgCl2, MnCl2 and DTT were added. The final composition of the buffer was as follows: 1× Kinase Buffer, 10 mM MgCl2, 1 mM MnCl2, and 1 mM DTT.
(§1) Preparation of 5 × BTK working solution: The BTK (5.17 µM) stock solution was removed from -20°C storage. Given that the BTK concentration in the enzyme reaction system was 2 nM and the concentration of the 5× working solution was 10 nM, the BTK stock solution was diluted 517-fold with the enzyme reaction buffer according to the volume required for the experiment. The diluted solution was then added to the 384-well plate at 2 µL per well. The plate was placed in a plate spinner and centrifuged at 2000 rpm for 1 minute to bring the liquid to the bottom of the wells.
as §1, with “[…]. Given” for “Preparation of 5 × BTK working solution: The BTK (5.17 µM) stock solution was removed from -20°C storage. Given”, “the SEB” for “the BTK”, “was 50” for “was 2”, “was 250” for “was 10”, “diluted 10-fold” for “diluted 517-fold”
The test compounds dissolved in 100% DMSO at 20 mM were diluted with 100% DMSO to a concentration of 200 µM, which represents the 200× concentration of the highest compound concentration point in the reaction system. The compounds at this concentration were then subjected to 10-point 3-fold serial dilution with 100% DMSO. The positive control wells and negative control wells were set with 100% DMSO. […]

[3] = 2 nM BTK, 10 µM ATP, 0.5 hours preincubation at 25°C; read-out: IC50 values of inhibitory activity against BTK
[4] = read-out: IC50 values of inhibitory activity against BTK; 2 nM BTK, 10 µM ATP, 0.5 hours preincubation at 25°C

T1 sequence (Q06187 whole entry): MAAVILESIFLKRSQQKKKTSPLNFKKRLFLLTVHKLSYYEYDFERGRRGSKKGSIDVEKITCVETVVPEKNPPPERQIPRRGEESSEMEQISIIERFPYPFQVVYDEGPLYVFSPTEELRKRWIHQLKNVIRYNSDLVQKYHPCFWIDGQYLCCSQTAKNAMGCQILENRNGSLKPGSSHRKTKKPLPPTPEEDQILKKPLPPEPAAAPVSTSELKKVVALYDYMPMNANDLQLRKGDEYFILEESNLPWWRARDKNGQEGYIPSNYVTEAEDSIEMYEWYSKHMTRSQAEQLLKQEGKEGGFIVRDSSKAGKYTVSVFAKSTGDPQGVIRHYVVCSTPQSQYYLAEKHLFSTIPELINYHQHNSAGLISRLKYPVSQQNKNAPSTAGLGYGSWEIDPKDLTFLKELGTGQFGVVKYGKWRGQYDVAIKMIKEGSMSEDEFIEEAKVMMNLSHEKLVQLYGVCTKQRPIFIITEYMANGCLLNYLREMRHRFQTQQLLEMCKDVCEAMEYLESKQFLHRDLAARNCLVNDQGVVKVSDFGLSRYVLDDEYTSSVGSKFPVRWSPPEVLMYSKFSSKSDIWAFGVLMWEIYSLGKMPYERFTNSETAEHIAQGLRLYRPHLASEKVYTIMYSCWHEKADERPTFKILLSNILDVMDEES

Structure (SMILES)	IC50 [1] [nM]	IC50 [2, 3] [nM]	IC50 [2, 4] [nM]
C=CC(=O)N(C)CCOc1c(N)ncnc1-c1cc(F)cc(NC(=O)c2cc3c(cc2F)C2(CC3)CC2)c1C [Example 1, N-(3-(6-amino-5-(2-(N-methacrylamido)ethoxy)pyrimidin-4-yl)-5-fluoro-2-methylphenyl)-6'-fluoro-2',3'-dihydrospiro[cyclopropane-1,1'-indene]-5'-carboxamide]	10 to 100	6.09	–
C=CC(=O)N(C)CCOc1c(N)ncnc1-c1cc(F)cc(NC(=O)c2ccc(C3(C)CC3)cc2F)c1C [Example 2, N-(3-(6-amino-5-(2-(N-methacrylamido)ethoxy)pyrimidin-4-yl)-5-fluoro-2-methylphenyl)-2-fluoro-4-(1-methylcyclopropyl)benzamide]	10 to 100	–	–
C=CC(=O)N(C)CCOc1c(N)ncnc1-c1cc(F)cc(NC(=O)c2ccc3c(c2F)OC(C)(C)C3)c1C [Example 4, N-(3-(6-amino-5-(2-(N-methacrylamido)ethoxy)pyrimidin-4-yl)-5-fluoro-2-methylphenyl)-7-fluoro-2,2-dimethyl-2,3-dihydrobenzofuran-6-carboxamide]	10 to 100	–	5.1
C=CC(=O)N(C)CCOc1c(N)ncnc1-c1cc(F)cc(NC(=O)c2ccc3c(c2F)OCC32CC2)c1C [Example 5, N-(3-(6-amino-5-(2-(N-methacrylamido)ethoxy)pyrimidin-4-yl)-5-fluoro-2-methylphenyl)-7-fluoro-2H-spiro[benzofuran-3,1'-cyclopropane]-6-carboxamide]	10 to 100	6.9	–
C=CC(=O)N(C)CCOc1c(N)ncnc1-c1cc(F)cc(NC(=O)c2sc3c(c2F)CC(C)(C)C3)c1C [Example 6, N-(3-(6-amino-5-(2-(N-methacrylamido)ethoxy)pyrimidin-4-yl)-5-fluoro-2-methylphenyl)-3-fluoro-5,5-dimethyl-5,6-dihydro-4H-cyclopenta[b]thiophene-2-carboxamide]	–	–	6.3
C=CC(=O)N(C)CCOc1c(N)ncnc1-c1cc(F)cc(NC(=O)c2cc3c(cc2F)C2(CC3)CC2)c1CO [Example 11, N-(3-(6-amino-5-(2-(N-methacrylamido)ethoxy)pyrimidin-4-yl)-5-fluoro-2-(hydroxymethyl)phenyl)-6'-fluoro-2',3'-dihydrospiro[cyclopropane-1,1'-indene]-5'-carboxamide]	10 to 100	–	4.2
C=CC(=O)N(C)CCOc1c(N)ncnc1-c1cc(F)cc(NC(=O)c2cc3c(cc2F)C(C)(C)CC3)c1C [Example 12, N-(3-(6-amino-5-(2-(N-methacrylamido)ethoxy)pyrimidin-4-yl)-5-fluoro-2-methylphenyl)-6-fluoro-1,1-dimethyl-2,3-dihydro-1H-indene-5-carboxamide]	10 to 100	4	–
[2H]C([2H])([2H])N(CCOc1c(N)ncnc1-c1cc(F)cc(NC(=O)c2cc3c(cc2F)C2(CC2)CO3)c1C)C(=O)C=C [Example 17, N-(3-(6-amino-5-(2-(N-(methyl-d3)acrylamido)ethoxy)pyrimidin-4-yl)-5-fluoro-2-methylphenyl)-5-fluoro-2H-spiro[benzofuran-3,1'-cyclopropane]-6-carboxamide]	10 to 100	5.74	–
[2H]C([2H])([2H])N(CCOc1c(N)ncnc1-c1cc(F)cc(NC(=O)c2ccc3c(c2F)OCC32CC2)c1C)C(=O)C=C [Example 18, N-(3-(6-amino-5-(2-(N-(methyl-d3)acrylamido)ethoxy)pyrimidin-4-yl)-5-fluoro-2-methylphenyl)-7-fluoro-2H-spiro[benzofuran-3,1'-cyclopropane]-6-carboxamide]	10 to 100	3.78	–
C=CC(=O)N(C)CCOc1c(N)ncnc1-c1cc(F)cc(NC(=O)c2ccc3c(c2F)OC2(CC2)C3)c1C [Example 20]	10 to 100	–	–
C=CC(=O)N(C)CCOc1c(N)ncnc1-c1cc(F)cc(NC(=O)c2sc3c(c2F)C2(CC3)CC2)c1C [Example 26-2, N-(3-(6-amino-5-(2-(N-methacrylamido)ethoxy)pyrimidin-4-yl)-5-fluoro-2-methylphenyl)-3-fluoro-5,6-dihydrospiro[cyclopenta[b]thiophene-4,1'-cyclopropane]-2-carboxamide]	–	–	6.15
C=CC(=O)N1C[C@H](OC)C[C@H]1COc1c(N)ncnc1-c1cc(F)cc(NC(=O)c2ccc3c(c2F)OCC3(C)C)c1C [Example 33, N-(3-(5-(((2S,4R)-1-acryloyl-4-methoxypyrrolidin-2-yl)methoxy)-6-aminopyrimidin-4-yl)-5-fluoro-2-methylphenyl)-7-fluoro-3,3-dimethyl-2,3-dihydrobenzofuran-6-carboxamide]	–	1.25	–
